According to patent US20130267551A1, “SUBSTITUTED HYDROGENATED THIENO-PYRROLO[3,2-C]PYRIDINE, LIGANDS, A PHARMACEUTICAL COMPOSITION AND A METHOD FOR USING THE ABOVE” (ALLA CHEM, LLC, priority 2010, published 2013):
Counter-ions that a name gives are not always drawn. Like-named read-outs stand apart in the source and are kept apart here.

Legend:
Serotoninergic 5-HT7 = Serotoninergic 5-HT7 (Homo sapiens, UniProt P34969); assay: competitive radioligand binding, Serotoninergic 5-HT7; conditions: compound concentration of 1 μM; read-out: radio-labelled ligand displacement, Serotoninergic 5-HT7
Method: (§1) Profiles of pharmacological activity of thieno-pyrrolo[3,2-c]pyridines of the general formula 1. Biological activity test of compounds of the general formula 1 was carried out in the setting of competitive radioligand binding [I. Okun, S. Tkachenko, A. Khvat, et al., Current Alzheimer Research, 7(2), 97-112 (2010)], using a wide range of therapeutic targets including G-protein coupled receptors (GPCR), ion channels and neuromediator transporters. The tested activity was determined by quantitative measurement of radio-labelled ligand displacement by tested compounds of the general formula 1 at their concentration of 1 μM.

Serotoninergic 5-HT2C = target: T1, Serotoninergic 5-HT2C (Homo sapiens, UniProt P28335); assay: competitive radioligand binding, Serotoninergic 5-HT2C; conditions: read-out: radio-labelled ligand displacement, Serotoninergic 5-HT2C
T1 sequence (P28335 33-458): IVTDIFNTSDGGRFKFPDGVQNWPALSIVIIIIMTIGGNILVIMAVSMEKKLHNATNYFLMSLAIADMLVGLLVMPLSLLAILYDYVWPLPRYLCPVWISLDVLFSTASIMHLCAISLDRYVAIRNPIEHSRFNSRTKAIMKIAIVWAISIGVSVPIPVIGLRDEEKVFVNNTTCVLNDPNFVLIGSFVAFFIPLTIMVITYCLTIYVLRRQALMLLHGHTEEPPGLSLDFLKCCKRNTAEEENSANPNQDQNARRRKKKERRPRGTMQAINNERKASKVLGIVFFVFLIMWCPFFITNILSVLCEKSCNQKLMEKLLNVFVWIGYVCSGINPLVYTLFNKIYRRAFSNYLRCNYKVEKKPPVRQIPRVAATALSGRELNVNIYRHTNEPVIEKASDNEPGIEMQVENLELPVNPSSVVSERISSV
Method: as §1

Serotoninergic 5-HT1B = assay: competitive radioligand binding, Serotoninergic 5-HT1B; conditions: compound concentration of 1 μM
Method: as §1

Mice of SHK line = assay: Prepulse inhibition of startle response in mice (Apomorphine); conditions: 1 mg/kg, subcutaneously 60 minutes before the test
male mice of BALB/c line [1] = assay: Passive Avoidance of mice in Shuttle Chamber (memory disturbed by Scopolamine); type: in vivo; conditions: intraperitoneally 30 minutes before training, in combination with Scopolamine
Method: Nootropic action (enhancement of memory disturbed by Scopolamine) of compounds of the general formula 1 in test “Passive Avoidance of mice in Shuttle Chamber”. Shuttle chamber (Ugo Basile, Italy) consisted of two sections was used. […] Sections were connected through a hole which could be overlapped by vertical door. The floor was made of transverse metal bars on which DC current impulses could be fed. Experiments were carried out in aged male mice of BALB/c line weighing 20-24 g. On the first day of experiment 30 minutes before training mice were injected intraperitoneally with physiological solution, (0.3 mg/kg) or Scopolamine in combination with compound 3.6(1).HCl, or Scopolamine in combination with compound 2.5(1).HCl. Each group consisted of 8 animals. Animals were placed in light section, and latent period of the first entry into the dark chamber was registered. Then the vertical door was closed and the animal was punished by 0.6 mA DC current for 3 seconds. After that the animal was taken back to its home cage. In 22-24 hours the same animal was placed again in light section of shuttle chamber and latent period of its first entry into dark section, total time of its stay in light section and number of entries into dark section was registered. Each monitoring lasted for 5 minutes. […]

Dopaminergic D4.2 = target: T2, Dopaminergic D4.2 (Homo sapiens, UniProt P21917, DEL265-296); assay: competitive radioligand binding, Dopaminergic D4.2; conditions: compound concentration of 1 μM; read-out: radio-labelled ligand displacement, Dopaminergic D4.2
T2 sequence (P21917 with tags, fused parts or gaps DEL265-296): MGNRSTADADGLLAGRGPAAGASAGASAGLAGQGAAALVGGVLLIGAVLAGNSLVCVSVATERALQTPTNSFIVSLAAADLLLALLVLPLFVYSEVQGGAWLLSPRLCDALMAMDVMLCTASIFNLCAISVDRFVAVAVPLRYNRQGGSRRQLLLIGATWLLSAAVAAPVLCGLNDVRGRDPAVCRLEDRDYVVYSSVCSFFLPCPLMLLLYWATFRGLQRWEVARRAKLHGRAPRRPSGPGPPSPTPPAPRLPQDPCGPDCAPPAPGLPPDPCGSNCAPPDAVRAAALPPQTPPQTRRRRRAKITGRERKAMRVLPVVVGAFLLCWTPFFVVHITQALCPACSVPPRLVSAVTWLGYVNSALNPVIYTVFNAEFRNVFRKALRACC
Method: as §1

male mice of BALB/c line [2] = assay: Mice behavior in tail suspension test; type: in vivo; conditions: after 4 days injections in dose of 0.1 mg/kg, 6 minutes
Method: Antidepressant action of compounds of the general formula 1 in test “Mice behavior in tail suspension test”. Experiments were carried out in aged male mice of BALB/c line weighing 20-24 g. Mice were suspended by tail with scotch tape on holder over horizontal surface at height of about 40 cm, and for 6 minutes of total duration of complete immobility episodes which is considered to be a measure of depressively-like state was registered. Automated computerized detection of motion with videosystem and Any-maze program were used in test.

male mice of BALB/c line [3] = assay: Porsolt's Forced Swim Test; type: in vivo; conditions: after 4 days injections in dose 1 mg/kg, last 5 minutes of the test
Method: Antidepressant action of antagonists of the general formula 1 in Porsolt's Forced Swim Test. Test apparatus represented a plastic vessel filled with water up to height of 18 cm at 20-22° C. Experiments were carried out in aged male mice of BALB/c line weighing 20-24 g.
Mice were placed in water and for 15 minutes duration of immobile hanging in water so called behavioural despaire, which is considered to be a measure of depressively-like state, was registered. The last 5 minutes of the test were used for analysis. Automated computerized detection of motion with videosystem and Any-maze program were used in the test.

[4] = system: Therapeutic targets (Adrenergic, Dopaminergic, Histaminergic, Serotoninergic); assay: Profiles of pharmacological activity in competitive radioligand binding (whole panel); conditions: 1 μM, grades not defined
Method: as §1

Sequence of Serotoninergic 5-HT7 (P34969 whole entry): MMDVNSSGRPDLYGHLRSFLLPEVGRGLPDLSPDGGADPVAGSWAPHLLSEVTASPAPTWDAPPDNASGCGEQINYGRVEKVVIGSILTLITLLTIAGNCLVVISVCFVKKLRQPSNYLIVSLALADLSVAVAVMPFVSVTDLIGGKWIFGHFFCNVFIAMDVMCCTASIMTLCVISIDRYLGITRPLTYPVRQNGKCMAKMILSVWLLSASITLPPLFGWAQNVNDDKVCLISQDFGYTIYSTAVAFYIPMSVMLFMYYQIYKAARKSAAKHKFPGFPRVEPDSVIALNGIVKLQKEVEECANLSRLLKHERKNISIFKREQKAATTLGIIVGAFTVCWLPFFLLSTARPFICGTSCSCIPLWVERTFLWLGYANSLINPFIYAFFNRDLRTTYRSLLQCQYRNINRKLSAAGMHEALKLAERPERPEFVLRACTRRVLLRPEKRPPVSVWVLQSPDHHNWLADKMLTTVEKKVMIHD

SMILES | inhibition at 1 µM (Serotoninergic 5-HT7) [%] | inhibition at 1 µM (Serotoninergic 5-HT2C) [%] | radio-labelled ligand displacement, Serotoninergic 5-HT1B (Serotoninergic 5-HT1B) [%] | Antipsychotic activity: disturbance of prepulse inhibition of startle caused by Apomorphine (Mice of SHK line) | Nootropic action: training disturbed by Scopolamine (male mice of BALB/c line [1]) | inhibition at 1 µM (Dopaminergic D4.2) [%] | Antidepressant action: duration of complete immobility (male mice of BALB/c line [2]) | Antidepressant action: duration of immobile hanging in water (male mice of BALB/c line [3]) | grade of the activity profile (poor / satisfactory / good) [4] | inhibition at 1 µM (Serotoninergic 5-HT2C; compound concentration of 1 μM) [%]
Cc1cc2c(s1)c1c(n2Cc2ccccc2)CCN(C)C1.Cl [2.5(1)•HCl, 4-Benzyl-2,7-dimethyl-5,6,7,8-tetrahydro-4H-thieno[2′,3′:4,5]pyrrolo[3,2-c]pyridine hydrochloride] | 92 | 84 | 6 | prevented disturbance of prepulse inhibition of startle caused by Apomorphine | improve training disturbed by Scopolamine | -3 | decrease the duration of complete immobility of mice | decrease this index | – | –
Cc1cc2c3c(n(Cc4ccccc4)c2s1)CC1CCC3N1C (stereo not shown) [3.13(1)•HCl, 9-benzyl-2,10-dimethyl-4,5,6,7,8,9-hexahydro-4,7-epiminocyclohepta[b]thieno[3,2-d]pyrrole] | 79 | 81 | 20 | – | – | 31 | – | – | satisfactory | –
Cc1cc2c3c(n(Cc4ccccc4)c2s1)CCN(C)C3.Cl [3.5(1)•HCl, 8-Benzyl-2,5-dimethyl-5,6,7,8-tetrahydro-4H-thieno[3′,2′:4,5]pyrrolo[3,2-c]pyridine hydrochloride] | 95 | 97 | 10 | – | – | -5 | – | – | – | –
Cc1cc2c(s1)c1c(n2CCc2ccccc2)CCN(C)C1.Cl [2.6(1)•HCl, 2,7-Dimethyl-4-(2-phenylethyl)-5,6,7,8-tetrahydro-4H-thieno[2′,3′:4,5]pyrrolo[3,2-c]pyridine hydrochloride] | 98 | 89 | 18 | – | – | 14 | – | – | – | –
Cc1cc2c(s1)c1c(n2-c2cccc(F)c2)CCN(C)C1 [2.4(3)•HCl, 2,7-dimethyl-4-(3-fluorophenyl)-5,6,7,8-tetrahydro-4H-thieno[2′,3′:4,5]pyrrolo[3,2-c]pyridine] | 43 | – | 5 | – | – | 3 | – | – | poor | 33
Cc1cc2c3c(n(CCc4ccccc4)c2s1)CCN(C)C3.Cl [3.6(1)•HCl, 2,5-Dimethyl-8-(2-phenylethyl)-5,6,7,8-tetrahydro-4H-thieno[3′,2′:4,5]pyrrolo[3,2-c]pyridine hydrochloride] | 99 | 99 | 47 | prevented disturbance of prepulse inhibition of startle caused by Apomorphine | improve training disturbed by Scopolamine | 71 | decrease the duration of complete immobility of mice | decrease this index | – | –
CC1Cc2c(c3sc(Cl)cc3n2C#Cc2cccc(F)c2)C(C)N1C (stereo not shown) [2.10(3)•HCl, 6,7,8-trimethyl-4-(3-fluorophenyl)ethynyl-2-chloro-5,6,7,8-tetrahydro-4H-thieno[2′,3′:4,5]pyrrolo[3,2-c]pyridine] | 33 | – | 9 | – | – | 4 | – | – | poor | 31
Cc1ccc(Cn2c3c(c4sc(Cl)cc42)C(C)N(C)C(C)C3)cn1 (stereo not shown) [2.5(4)•HCl, 4-(6-methylpyridin-3-ylmethyl)-6,7,8-trimethyl-2-chloro-5,6,7,8-tetrahydro-4H-thieno[2′,3′:4,5]pyrrolo[3,2-c]pyridine] | 87 | – | 28 | – | – | -1 | – | – | satisfactory | 91
Cc1ccc(CCCn2c3c(c4scc(Cl)c42)CN(C)CC3)cn1 [2.12(5)•HCl, 7-methyl-4-[3-(6-methylpyridin-3-yl)propyl]-3-chloro-5,6,7,8-tetrahydro-4H-thieno[2′,3′:4,5]pyrrolo[3,2-c]pyridine] | 99 | – | 62 | – | – | 69 | – | – | good | 99
